Laboratory results published in article PMC12866986 (European journal of medicinal chemistry, 2026).
Read-outs that look alike come from different tables or passages of the source.

Legend:
[1] = system: Caco-2 cells; conditions: for wound closure with proliferation inhibited: 100 nM, 4 mM hydroxyurea, 24 h, Caco-2 monolayers, n=33–35, p<0.05 vs vehicle; for EC50: read-out: EC50 (nM), ± SEM, wound healing, Caco-2 assay
[2] = biological target: hERG (Homo sapiens, UniProt Q12809); conditions: at 30 μM
hERG, sequence (Q12809 whole entry): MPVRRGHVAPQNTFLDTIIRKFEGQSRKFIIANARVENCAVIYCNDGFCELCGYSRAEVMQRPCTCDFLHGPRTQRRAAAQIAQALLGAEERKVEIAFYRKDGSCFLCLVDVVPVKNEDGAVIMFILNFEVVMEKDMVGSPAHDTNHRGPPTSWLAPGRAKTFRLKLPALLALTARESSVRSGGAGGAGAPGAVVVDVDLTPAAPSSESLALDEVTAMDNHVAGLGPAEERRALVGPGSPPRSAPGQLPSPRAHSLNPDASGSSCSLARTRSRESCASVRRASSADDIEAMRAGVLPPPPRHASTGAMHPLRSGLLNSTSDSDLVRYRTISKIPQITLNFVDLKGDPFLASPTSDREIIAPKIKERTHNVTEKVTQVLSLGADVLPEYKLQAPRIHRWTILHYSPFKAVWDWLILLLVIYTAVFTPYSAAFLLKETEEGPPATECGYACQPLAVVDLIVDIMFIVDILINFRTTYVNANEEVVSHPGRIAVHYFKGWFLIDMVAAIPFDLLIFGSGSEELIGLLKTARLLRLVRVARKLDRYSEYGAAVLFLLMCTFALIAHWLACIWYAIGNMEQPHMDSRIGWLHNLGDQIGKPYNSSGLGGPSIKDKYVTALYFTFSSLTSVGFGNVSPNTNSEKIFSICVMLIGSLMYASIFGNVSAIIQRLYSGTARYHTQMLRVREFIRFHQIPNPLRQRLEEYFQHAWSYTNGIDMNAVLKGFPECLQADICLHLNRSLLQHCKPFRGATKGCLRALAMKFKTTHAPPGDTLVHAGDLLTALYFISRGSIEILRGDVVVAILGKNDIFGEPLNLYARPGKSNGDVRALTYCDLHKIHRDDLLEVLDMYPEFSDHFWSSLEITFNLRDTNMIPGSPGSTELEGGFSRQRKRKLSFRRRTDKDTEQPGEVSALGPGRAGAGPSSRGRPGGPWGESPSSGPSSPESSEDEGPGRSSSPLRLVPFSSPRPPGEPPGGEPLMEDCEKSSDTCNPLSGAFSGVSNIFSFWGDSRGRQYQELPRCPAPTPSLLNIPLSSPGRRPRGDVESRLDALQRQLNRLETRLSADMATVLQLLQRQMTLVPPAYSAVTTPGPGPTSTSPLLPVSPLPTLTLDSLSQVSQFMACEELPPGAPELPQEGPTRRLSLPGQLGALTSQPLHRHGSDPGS

[3] = for Clint: intrinsic clearance; for MLM t1/2: mouse liver microsomes
[4] = PBS at pH = 7.4
[5] = biological target: FAK (Homo sapiens, UniProt Q05397); conditions: 1 h, relative to vehicle control, n = 8 measurements
FAK, sequence (Q05397 whole entry): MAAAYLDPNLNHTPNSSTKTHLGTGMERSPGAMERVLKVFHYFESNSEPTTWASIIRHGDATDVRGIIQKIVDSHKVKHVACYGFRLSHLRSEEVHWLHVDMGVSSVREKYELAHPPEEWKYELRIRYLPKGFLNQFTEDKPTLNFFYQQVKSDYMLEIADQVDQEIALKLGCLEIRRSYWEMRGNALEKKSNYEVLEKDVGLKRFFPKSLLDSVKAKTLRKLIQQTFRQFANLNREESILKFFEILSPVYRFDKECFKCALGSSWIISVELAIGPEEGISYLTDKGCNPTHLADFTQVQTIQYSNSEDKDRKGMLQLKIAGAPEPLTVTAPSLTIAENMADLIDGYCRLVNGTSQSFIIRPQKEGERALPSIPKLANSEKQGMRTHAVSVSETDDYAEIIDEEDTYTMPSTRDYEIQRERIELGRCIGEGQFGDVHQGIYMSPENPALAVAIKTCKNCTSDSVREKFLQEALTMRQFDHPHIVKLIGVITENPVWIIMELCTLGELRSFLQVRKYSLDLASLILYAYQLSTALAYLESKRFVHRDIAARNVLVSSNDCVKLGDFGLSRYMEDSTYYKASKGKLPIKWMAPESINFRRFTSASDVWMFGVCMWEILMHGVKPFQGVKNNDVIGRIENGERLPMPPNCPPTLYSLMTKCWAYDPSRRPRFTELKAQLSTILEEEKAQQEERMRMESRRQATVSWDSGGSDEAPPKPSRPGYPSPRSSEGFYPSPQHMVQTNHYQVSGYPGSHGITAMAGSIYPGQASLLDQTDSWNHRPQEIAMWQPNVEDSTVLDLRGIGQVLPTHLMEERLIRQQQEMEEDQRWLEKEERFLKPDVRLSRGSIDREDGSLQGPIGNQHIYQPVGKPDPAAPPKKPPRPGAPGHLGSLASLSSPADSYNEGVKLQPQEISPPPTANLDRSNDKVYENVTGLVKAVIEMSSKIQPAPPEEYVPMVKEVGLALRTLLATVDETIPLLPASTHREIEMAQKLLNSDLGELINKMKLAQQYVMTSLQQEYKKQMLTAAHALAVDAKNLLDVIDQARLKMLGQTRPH

[6] = rat plasma
[7] = at concentrations 10,000x higher than the effective dose; cited from earlier work
[8] = after four days of continuous administration; cited from earlier work
[9] = cited from earlier work
[10] = cited from earlier work; remark: listed apart in the source
[11] = system: Caco-2 cells; conditions: cited from earlier work
[12] = system: Src; conditions: at 10 μM; cited from earlier work
[13] = system: Pyk2; conditions: at 10 μM; cited from earlier work
[14] = system: gut mucosal wound; conditions: cited from earlier work

Structure (SMILES)	wound closure with proliferation inhibited [1]	EC50 [1] [nM]	hERG Inhibition % [2] [%]	Clint [3] [uL/min/mg protein]	MLM t1/2 [3] [min]	Solubility [4] [µg/mL]	FAK-Tyr-397/FAK fold change, ± SEM ([5]; 100 nM) [fold change]	further results
COCCOCCOc1ccc(N2CCOCC2)c(NC(=O)NCC(c2ccncc2)N(C)C)c1.Cl (centres unmarked) [Compound 10kHCl, 1-(2-(Dimethylamino)-2-(pyridin-4-yl)ethyl)-3-(5-(2-(2-methoxyethoxy)ethoxy)-2-morpholinophenyl)urea hydrochloric salt]	accelerated	3.01 ± 0.51	0.608	93.0	14.9	1018	–	–
CN(C)C(CNC(=O)Nc1cc(F)ccc1N1CCOCC1)c1ccncc1.Cl (centres unmarked) [Compound 10bHCl, 1-(2-(Dimethylamino)-2-(pyridin-4-yl)ethyl)-3-(5-fluoro-2-morpholinophenyl)urea hydrochloric salt]	accelerated	2.36 ± 0.58	15.2	> 307	<4.51	985	1.39	FAK-Tyr-397/FAK fold change, ± SEM ([5]; 10 nM): 1.25 fold change
CN(C)C(CNC(=O)Nc1cc(C(F)(F)F)ccc1N1CCOCC1)c1ccncc1.Cl (centres unmarked) [Compound 5aHCl, 1-(2-(dimethylamino)-2-(pyridin-4-yl)ethyl)-3-(2-morpholino-5-(trifluoromethyl)phenyl)urea hydrochloric salt]	accelerated	3.01 ± 0.52	4.87	> 307	< 4.51	1074	–	area under the curve ([6]; 10 mg/kg oral gavage): 3149 µg·h/mL; time of Cmax ([6]; 10 mg/kg oral gavage): 1 h; maximum concentration (Cmax) ([6]; 10 mg/kg oral gavage in saline, n = 4): 967 ng/mL; in vitro cytotoxicity [7]: no in vitro cytotoxicity; in vivo toxicity [8]: no in vivo toxicity; water solubility [9]: water-soluble; oral bioavailability [10]: orally bioavailable
CN(C)C(CNC(=O)Nc1cc(C(F)(F)F)ccc1N1CCOCC1)c1ccncc1 (centres unmarked) [Compound 5a, 1-(2-(dimethylamino)-2-(pyridin-4-yl)ethyl)-3-(2-morpholino-5-(trifluoromethyl)phenyl)urea]	–	–	–	–	–	–	–	epithelial sheet migration in vitro [11]: induces epithelial sheet migration; Src activation [12]: does not activate; Pyk2 activation [13]: does not activate; gut mucosal wound healing in vivo [14]: stimulates gut mucosal wound healing
CN(C)C(CNC(=O)Nc1cc(Cl)ccc1N1CCOCC1)c1ccncc1 (centres unmarked) [Compound 10e, 1-(5-Chloro-2-morpholinophenyl)-3-(2-(dimethylamino)-2-(pyridin-4-yl)ethyl)urea]	–	–	–	–	–	–	0.82±0.06	–
